Results from PMC3867298 (Clinical cancer research : an official journal of the …, 2010).

What was measured:
[1] = Plasma pharmacokinetics in patients; format: in vivo, human; settings: for AUC(0-inf) / Cmax / Tmax / half-life / Vd/F: human, plasma, oral; for Vd/F: 160 mg/m2, Vd/F
[2] = system: plasma soluble VEGFR2 (sVEGFR2); test: Plasma soluble VEGFR2 ELISA; format: in vivo, human; settings: cycle 1, day 28 (95% CI 5,086, 6,113); baseline cycle 1 day 1 8,419 pg/mL; P < 0.001
phosphohistone H3 (pHH3) = test: Histone H3 phosphorylation in keratinocytes; format: in vivo, human; settings: 9 paired skin biopsies at MTD, cycle 1 day 28
advanced solid tumors = test: Antitumor activity by modified RECIST and CA125; format: in vivo, human
[3] = system: patients with advanced solid tumors
[4] = day 1, 160 mg/m^2, n=8, mean ± SD
[5] = day 28, 160 mg/m^2, n=5, mean ± SD

Cc1cc(Nc2cc(N3CCN(C)CC3)nc(/C=C/c3ccccc3)n2)n[nH]1 [ENMD-2076]
CL/F ([1]; day 1, 60 mg/m^2, n=6, mean ± SD): 37.9 ± 19.3 L/h | CL/F ([1]; day 1, 80 mg/m^2, n=4, mean ± SD): 45.9 ± 13.0 L/h | CL/F ([1]; day 1, 120 mg/m^2, n=3, mean ± SD): 64.3 ± 16.9 L/h | CL/F [1, 4]: 52.9 ± 18.4 L/h | CL/F ([1]; day 1, 200 mg/m^2, n=5, mean ± SD): 41.5 ± 13.3 L/h | CL/F ([1]; day 1, 350 mg/m^2, n=2, mean ± SD): 55.2 ± 12.9 L/h | CL/F ([1]; day 28, 60 mg/m^2, n=6, mean ± SD): 10.4 ± 7.9 L/h | CL/F ([1]; day 28, 80 mg/m^2, n=3, mean ± SD): 10.8 ± 3.3 L/h | CL/F ([1]; day 28, 120 mg/m^2, n=3, mean ± SD): 13.0 ± 1.4 L/h | CL/F [1, 5]: 9.1 ± 2.9 L/h | CL/F ([1]; day 28, 200 mg/m^2, n=4, mean ± SD): 14.0 ± 4.7 L/h | AUC(0-inf) ([1]; 60 mg/m2, AUC(0-inf), day 1, 60 mg/m^2, n=6, mean ± SD): 3160 ± 1340 ng·h/mL | AUC(0-inf) ([1]; 60 mg/m2, AUC(0-inf), day 28, 60 mg/m^2, n=6, mean ± SD): 15300 ± 8910 ng·h/mL | Cmax ([1]; 60 mg/m2, Cmax, day 1, 60 mg/m^2, n=6, mean ± SD): 64 ± 23 ng/mL | Cmax ([1]; 60 mg/m2, Cmax, day 28, 60 mg/m^2, n=6, mean ± SD): 218 ± 95 ng/mL | Tmax ([1]; 60 mg/m2, Tmax, day 1, 60 mg/m^2, n=6, mean ± SD): 7.8 ± 7.8 h | Tmax ([1]; 60 mg/m2, Tmax, day 28, 60 mg/m^2, n=6, mean ± SD): 4.7 ± 3 h | half-life ([1]; 60 mg/m2, t1/2, day 1, 60 mg/m^2, n=6, mean ± SD): 36.4 ± 19.3 h | half-life ([1]; 60 mg/m2, t1/2, day 28, 60 mg/m^2, n=6, mean ± SD): 53.1 ± 20.4 h | AUC(0-inf) ([1]; 80 mg/m2, AUC(0-inf), day 1, 80 mg/m^2, n=4, mean ± SD): 3850 ± 1600 ng·h/mL | AUC(0-inf) ([1]; 80 mg/m2, AUC(0-inf), day 28, 80 mg/m^2, n=3, mean ± SD): 14700 ± 3780 ng·h/mL | Cmax ([1]; 80 mg/m2, Cmax, day 1, 80 mg/m^2, n=4, mean ± SD): 101 ± 59 ng/mL | Cmax ([1]; 80 mg/m2, Cmax, day 28, 80 mg/m^2, n=3, mean ± SD): 233 ± 76 ng/mL | Tmax ([1]; 80 mg/m2, Tmax, day 1, 80 mg/m^2, n=4, mean ± SD): 4 ± 1.6 h | Tmax ([1]; 80 mg/m2, Tmax, day 28, 80 mg/m^2, n=3, mean ± SD): 3.4 ± 1.2 h | half-life ([1]; 80 mg/m2, t1/2, day 1, 80 mg/m^2, n=4, mean ± SD): 31.8 ± 7.6 h | half-life ([1]; 80 mg/m2, t1/2, day 28, 80 mg/m^2, n=3, mean ± SD): 51 ± 18.7 h | AUC(0-inf) ([1]; 120 mg/m2, AUC(0-inf), day 1, 120 mg/m^2, n=3, mean ± SD): 3590 ± 1260 ng·h/mL | AUC(0-inf) ([1]; 120 mg/m2, AUC(0-inf), day 28, 120 mg/m^2, n=3, mean ± SD): 16700 ± 1120 ng·h/mL | Cmax ([1]; 120 mg/m2, Cmax, day 1, 120 mg/m^2, n=3, mean ± SD): 93 ± 14 ng/mL | Cmax ([1]; 120 mg/m2, Cmax, day 28, 120 mg/m^2, n=3, mean ± SD): 314 ± 73 ng/mL | Tmax ([1]; 120 mg/m2, Tmax, day 1, 120 mg/m^2, n=3, mean ± SD): 6 ± 3.5 h | Tmax ([1]; 120 mg/m2, Tmax, day 28, 120 mg/m^2, n=3, mean ± SD): 2.7 ± 3.2 h | half-life ([1]; 120 mg/m2, t1/2, day 1, 120 mg/m^2, n=3, mean ± SD): 27.3 ± 5.8 h | half-life ([1]; 120 mg/m2, t1/2, day 28, 120 mg/m^2, n=3, mean ± SD): 44.9 ± 8.6 h | AUC(0-inf) ([1]; 160 mg/m2, AUC(0-inf), day 1, 160 mg/m^2, n=8, mean ± SD): 5940 ± 2410 ng·h/mL | AUC(0-inf) ([1]; 160 mg/m2, AUC(0-inf), day 28, 160 mg/m^2, n=5, mean ± SD): 34600 ± 16500 ng·h/mL | Cmax ([1]; 160 mg/m2, Cmax, day 1, 160 mg/m^2, n=8, mean ± SD): 157 ± 52 ng/mL | Cmax ([1]; 160 mg/m2, Cmax, day 28, 160 mg/m^2, n=5, mean ± SD): 558 ± 222 ng/mL | Tmax ([1]; 160 mg/m2, Tmax, day 1, 160 mg/m^2, n=8, mean ± SD): 3.5 ± 1.4 h | Tmax ([1]; 160 mg/m2, Tmax, day 28, 160 mg/m^2, n=5, mean ± SD): 4.4 ± 2.1 h | Vd/F [1, 4]: 2020 ± 388 L | Vd/F [1, 5]: 600 ± 229 L | half-life ([1]; 160 mg/m2, t1/2, day 1, 160 mg/m^2, n=8, mean ± SD): 28.6 ± 8.4 h | half-life ([1]; 160 mg/m2, t1/2, day 28, 160 mg/m^2, n=5, mean ± SD): 46.1 ± 9.5 h | AUC(0-inf) ([1]; 200 mg/m2, AUC(0-inf), day 1, 200 mg/m^2, n=5, mean ± SD): 10600 ± 4900 ng·h/mL | AUC(0-inf) ([1]; 200 mg/m2, AUC(0-inf), day 28, 200 mg/m^2, n=4, mean ± SD): 34500 ± 18300 ng·h/mL | Cmax ([1]; 200 mg/m2, Cmax, day 1, 200 mg/m^2, n=5, mean ± SD): 229 ± 65 ng/mL | Cmax ([1]; 200 mg/m2, Cmax, day 28, 200 mg/m^2, n=4, mean ± SD): 557 ± 191 ng/mL | Tmax ([1]; 200 mg/m2, Tmax, day 1, 200 mg/m^2, n=5, mean ± SD): 4 ± 2.4 h | Tmax ([1]; 200 mg/m2, Tmax, day 28, 200 mg/m^2, n=4, mean ± SD): 4.5 ± 2.5 h | half-life ([1]; 200 mg/m2, t1/2, day 1, 200 mg/m^2, n=5, mean ± SD): 38.3 ± 10 h | half-life ([1]; 200 mg/m2, t1/2, day 28, 200 mg/m^2, n=4, mean ± SD): 47.6 ± 12.7 h | AUC(0-inf) ([1]; 350 mg/m2, AUC(0-inf), day 1, 350 mg/m^2, n=2, mean ± SD): 12200 ± 5100 ng·h/mL | Cmax ([1]; 350 mg/m2, Cmax, day 1, 350 mg/m^2, n=2, mean ± SD): 300 ± 18 ng/mL | Tmax ([1]; 350 mg/m2, Tmax, day 1, 350 mg/m^2, n=2, mean ± SD): 3 ± 1.4 h | half-life ([1]; 350 mg/m2, t1/2, day 1, 350 mg/m^2, n=2, mean ± SD): 31.1 ± 14.4 h | half-life ([1]; Mean terminal phase elimination half-life (t1/2), range, after a single dose): 27.3 to 38.3 h | Tmax ([1]; Tmax, range over all dose levels, day 28): 2.7 to 4.7 h | Mean plasma sVEGFR2 [2]: 5,600 pg/mL | Paired biopsies in which pHH3-positive cells decreased posttreatment (phosphohistone H3 (pHH3)): 3 samples | Paired biopsies in which pHH3-positive cells increased (phosphohistone H3 (pHH3)): 2 samples | Paired biopsies in which pHH3-positive cells remained the same (phosphohistone H3 (pHH3)): 4 samples | Colorectal cancer patients with SD ≥ 12 weeks (advanced solid tumors; 19 colorectal cancer patients, 5 patients): 26% | Ovarian cancer patients with PR or SD ≥ 12 weeks (advanced solid tumors; 20 ovarian cancer patients, all dose levels, twelve patients): 60% | Partial responses (PR) as best response (advanced solid tumors; 58 evaluable patients, 2 patients, 1 confirmed, both ovarian cancer): 3% | Progressive disease (PD) as best response (advanced solid tumors; 58 evaluable patients, 7 patients): 12% | Patients with decreases in tumor measurements from baseline not qualifying as PR (advanced solid tumors; twenty patients): 30% | Patients with grade 3 neutropenia requiring dose delay and reduction ([3]; 200 mg/m^2, 3 of 7): 43% | Patients with neutropenia ([3]; 200 mg/m^2 during dose escalation, 4 of 7): 57% | Rate of grade ≥ 3 neutropenia ([3]; 46 patients treated at 160 mg/m^2 (2/46)): 4% | Rate of grade ≥ 3 fatigue ([3]; 46 patients treated at 160 mg/m^2 (3/46)): 7% | Rate of grade ≥ 3 hypertension ([3]; 46 patients treated at 160 mg/m^2 (11/46)): 24% | Patients with adverse events meeting DLT criteria ([3]; MTD expansion, 12/38, 16 events): 32% | Patients requiring dose reduction ([3]; MTD expansion, 14/38): 37% | Patients with dose delays ([3]; MTD expansion, 24/38): 63%
